Legend:
[1] = molecular target: T1, MTHFD2 recombinant human enzyme (Homo sapiens, UniProt P13995); test: MTHFD2 inhibition assay (NAD(P)H-Glo luminescence); conditions: for MTHFD1/MTHFD2 IC50 ratio: selectivity of MTHFD2 inhibition over MTHFD1, band
T1 sequence (P13995 36-350): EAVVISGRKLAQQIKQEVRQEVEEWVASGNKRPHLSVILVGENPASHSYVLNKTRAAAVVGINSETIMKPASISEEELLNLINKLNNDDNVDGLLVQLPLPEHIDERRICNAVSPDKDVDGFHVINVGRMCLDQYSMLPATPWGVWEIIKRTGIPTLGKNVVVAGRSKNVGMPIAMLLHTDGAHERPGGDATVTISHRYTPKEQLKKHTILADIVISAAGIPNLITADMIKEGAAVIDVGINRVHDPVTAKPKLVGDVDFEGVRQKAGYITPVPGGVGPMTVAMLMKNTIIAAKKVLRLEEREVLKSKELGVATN

[2] = molecular target: T2, MTHFD1 recombinant human enzyme (Homo sapiens, UniProt P11586); test: MTHFD1 inhibition assay (NAD(P)H-Glo luminescence); conditions: MTHFD1 IC50, recombinant human enzyme 200 nM, NADP, band
T2 sequence (P11586 2-291 limits assumed): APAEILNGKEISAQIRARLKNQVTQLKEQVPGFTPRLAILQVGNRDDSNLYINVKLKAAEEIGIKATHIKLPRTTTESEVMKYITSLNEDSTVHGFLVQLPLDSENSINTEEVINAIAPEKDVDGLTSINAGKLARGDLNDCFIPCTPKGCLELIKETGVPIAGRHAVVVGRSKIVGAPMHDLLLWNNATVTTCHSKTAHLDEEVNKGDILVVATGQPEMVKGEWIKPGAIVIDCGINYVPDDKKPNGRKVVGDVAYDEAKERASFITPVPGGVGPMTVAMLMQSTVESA

Row | SMILES | IC50 [1] | MTHFD1/MTHFD2 IC50 ratio [1] | IC50 [2]
1 | COC[C@H]1CN(c2cc(C)c3c4c(c(=O)oc3c2C)CN(C(=O)c2cc(OC3CCC3)c(C(=O)NS(=O)(=O)N3CCCC3)c(C(F)(F)F)c2)CC4)CCN1C [Example 132, (R)-2-cyclobutoxy-4-(8-(3-(methoxymethyl)-4-methylpiperazin-1-yl)-7,10-dimethyl-5-oxo-1,3,4,5-tetrahydro-2H-chromeno[3,4-c]pyridine-3-carbonyl)-N-(pyrrolidin-1-ylsulfonyl)-6-(trifluoromethyl)benzamide] | 10 to 100 nM | H (>9.0 to 30) | 100 to 1000 nM
2 | CCOc1cc(C(=O)N2CCc3c(c(=O)oc4c(C)c(N5CCN(C)[C@@H](COC)C5)cc(C)c34)C2)ccc1C(=O)NS(=O)(=O)N1C2CCC1CC2 [Example 227, (R)-N-((7-azabicyclo[2.2.1]heptan-7-yl)sulfonyl)-2-ethoxy-4-(8-(3-(methoxymethyl)-4-methylpiperazin-1-yl)-7,10-dimethyl-5-oxo-1,3,4,5-tetrahydro-2H-chromeno[3,4-c]pyridine-3-carbonyl)benzamide] | 1 to 10 nM | H (>9.0 to 30) | 100 to 1000 nM
3 | COC[C@H]1CN(c2cc(C)c3c4c(c(=O)oc3c2C)CN(C(=O)c2ccc(C(=O)NS(=O)(=O)N(C)C)c(N(C)C3CC3)c2)CC4)CCN1C [Example 84, (R)-2-(cyclopropyl(methyl)amino)-N-(N,N-dimethylsulfamoyl)-4-(8-(3-(methoxymethyl)-4-methylpiperazin-1-yl)-7,10-dimethyl-5-oxo-1,3,4,5-tetrahydro-2H-chromeno[3,4-c]pyridine-3-carbonyl)benzamide] | 1 to 10 nM | G (^ 3 to 9.0) | 10 to 100 nM
4 | CCOc1c(C(=O)NS(=O)(=O)N2CC3CC3C2)ccc(C(=O)N2CCc3c(c(=O)oc4c(Cl)c(N5CCN(C)[C@@H](COC)C5)ccc34)C2)c1F (stereo partly drawn) [Example 208, N-((3-azabicyclo[3.1.0]hexan-3-yl)sulfonyl)-4-(7-chloro-8-((R)-3-(methoxymethyl)-4-methylpiperazin-1-yl)-5-oxo-1,3,4,5-tetrahydro-2H-chromeno[3,4-c]pyridine-3-carbonyl)-2-ethoxy-3-fluorobenzamide] | 10 to 100 nM | F (<3) | 10 to 100 nM
5 | COC[C@H]1CN(c2cc(Cl)c3c4c(c(=O)oc3c2C)CN(C(=O)c2ccc(C(=O)NS(=O)(=O)N3CC5(CCC5)C3)c(OC)c2)CC4)CCN1C [Example 279, (R)-N-((2-azaspiro[3.3]heptan-2-yl)sulfonyl)-4-(10-chloro-8-(3-(methoxymethyl)-4-methylpiperazin-1-yl)-7-methyl-5-oxo-1,3,4,5-tetrahydro-2H-chromeno[3,4-c]pyridine-3-carbonyl)-2-methoxybenzamide] | 10 to 100 nM | H (>9.0 to 30) | 100 to 1000 nM
6 | COC[C@H]1CN(c2cc(C)c3c4c(c(=O)oc3c2C)CN(C(=O)c2ccc(C(=O)NS(=O)(=O)N(C)C)c(OC3C5CC6CC(C5)CC3C6)c2)CC4)CCN1C (stereo partly drawn) [Example 100, 2-((adamantan-2-yl)oxy)-N-(N,N-dimethylsulfamoyl)-4-(8-((R)-3-(methoxymethyl)-4-methylpiperazin-1-yl)-7,10-dimethyl-5-oxo-1,3,4,5-tetrahydro-2H-chromeno[3,4-c]pyridine-3-carbonyl)benzamide] | 10 to 100 nM | F (<3) | 10 to 100 nM
7 | COC[C@@H]1CN(c2cc(C)c3c4c(c(=O)oc3c2C)CN(C(=O)c2ccc(C(=O)NS(=O)(=O)N3CCCC3)c(OC3CCC3)c2)CC4)CCN1C [Example 131, (S)-2-cyclobutoxy-4-(8-(3-(methoxymethyl)-4-methylpiperazin-1-yl)-7,10-dimethyl-5-oxo-1,3,4,5-tetrahydro-2H-chromeno[3,4-c]pyridine-3-carbonyl)-N-(pyrrolidin-1-ylsulfonyl)benzamide] | 10 to 100 nM | G (^ 3 to 9.0) | 100 to 1000 nM

Continued, values first:

Row | IC50 [1] | MTHFD1/MTHFD2 IC50 ratio [1] | IC50 [2] | SMILES
8 | 10 to 100 nM | F (<3) | 10 to 100 nM | COC[C@H]1CN(c2ccc3c4c(c(=O)oc3c2C)CN(C(=O)c2ccc(C(=O)NS(=O)(=O)C3(C)CC3)c(OC3CCCC3)c2F)CC4)CCN1C [Example 9, (R)-2-(cyclopentyloxy)-3-fluoro-4-(8-(3-(methoxymethyl)-4-methylpiperazin-1-yl)-7-methyl-5-oxo-1,3,4,5-tetrahydro-2H-chromeno[3,4-c]pyridine-3-carbonyl)-N-((1-methylcyclopropyl)sulfonyl)benzamide]
9 | 10 to 100 nM | H (>9.0 to 30) | 1000 to 5000 nM | COC[C@H]1CN(c2cc(Cl)c3c4c(c(=O)oc3c2C)CN(C(=O)c2cc(N(C)C)c(C(=O)NS(=O)(=O)N3CCCCC35COC5)cc2F)CC4)CCN1C [Example 271, (R)-N-((2-oxa-5-azaspiro[3.5]nonan-5-yl)sulfonyl)-4-(10-chloro-8-(3-(methoxymethyl)-4-methylpiperazin-1-yl)-7-methyl-5-oxo-1,3,4,5-tetrahydro-2H-chromeno[3,4-c]pyridine-3-carbonyl)-2-(dimethylamino)-5-fluorobenzamide]
10 | 10 to 100 nM | F (<3) | 10 to 100 nM | COC[C@H]1CN(c2cc(C)c3c4c(c(=O)oc3c2C)CN(C(=O)c2ccc(C(=O)NS(=O)(=O)N3CCCC3)c(N3CC5CCC3C5)c2)CC4)CCN1C (stereo partly drawn) [Example 115, 2-(2-azabicyclo[2.2.1]heptan-2-yl)-4-(8-((R)-3-(methoxymethyl)-4-methylpiperazin-1-yl)-7,10-dimethyl-5-oxo-1,3,4,5-tetrahydro-2H-chromeno[3,4-c]pyridine-3-carbonyl)-N-(pyrrolidin-1-ylsulfonyl)benzamide]
11 | 10 to 100 nM | F (<3) | 10 to 100 nM | CCOc1c(C(=O)NS(=O)(=O)N2C[C@H]3CCC[C@H]3C2)ccc(C(=O)N2CCc3c(c(=O)oc4c(C)c(N5CCN(C)[C@@H](COC)C5)cc(C)c34)C2)c1F [Example 232]
12 | 10 to 100 nM | G (^ 3 to 9.0) | 10 to 100 nM | COC[C@H]1CN(c2cc(C)c3c4c(c(=O)oc3c2C)CN(C(=O)c2cc(N3CCCC3)c(C(=O)NS(=O)(=O)C3(C)CC3)cc2F)CC4)CCN1C [Example 142, (R)-5-fluoro-4-(8-(3-(methoxymethyl)-4-methylpiperazin-1-yl)-7,10-dimethyl-5-oxo-1,3,4,5-tetrahydro-2H-chromeno[3,4-c]pyridine-3-carbonyl)-N-((1-methylcyclopropyl)sulfonyl)-2-(pyrrolidin-1-yl)benzamide]
13 | 1 to 10 nM | F (<3) | 1 to 10 nM | COC[C@H]1CN(c2cc(C)c3c4c(c(=O)oc3c2C)CN(C(=O)c2ccc(C(=O)NS(=O)(=O)N(C)C)c(N3CCCC(F)(F)C3)c2)CC4)CCN1C [Example 77, (R)-2-(3,3-difluoropiperidin-1-yl)-N-(N,N-dimethylsulfamoyl)-4-(8-(3-(methoxymethyl)-4-methylpiperazin-1-yl)-7,10-dimethyl-5-oxo-1,3,4,5-tetrahydro-2H-chromeno[3,4-c]pyridine-3-carbonyl)benzamide]
14 | 10 to 100 nM | H (>9.0 to 30) | 100 to 1000 nM | COC[C@H]1CN(c2cc(Cl)c3c4c(c(=O)oc3c2C)CN(C(=O)c2cc(N(C)C)c(C(=O)NS(=O)(=O)N3CCC5(COC5)C3)cc2F)CC4)CCN1C [Example 273, (R)-N-((2-oxa-6-azaspiro[3.4]octan-6-yl)sulfonyl)-4-(10-chloro-8-(3-(methoxymethyl)-4-methylpiperazin-1-yl)-7-methyl-5-oxo-1,3,4,5-tetrahydro-2H-chromeno[3,4-c]pyridine-3-carbonyl)-2-(dimethylamino)-5-fluorobenzamide]
15 | 1 to 10 nM | H (>9.0 to 30) | 10 to 100 nM | COC[C@H]1CN(c2cc(C)c3c4c(c(=O)oc3c2C)CN(C(=O)c2ccc(C(=O)NS(=O)(=O)C3(C)CC3)c(N3CC5CC5C3)c2)CC4)CCN1C (stereo partly drawn) [Example 46, 2-(3-azabicyclo[3.1.0]hexan-3-yl)-4-(8-((R)-3-(methoxymethyl)-4-methylpiperazin-1-yl)-7,10-dimethyl-5-oxo-1,3,4,5-tetrahydro-2H-chromeno[3,4-c]pyridine-3-carbonyl)-N-((1-methylcyclopropyl)sulfonyl)benzamide]
16 | 10 to 100 nM | G (^ 3 to 9.0) | 100 to 1000 nM | COC[C@H]1CN(c2ccc3c4c(c(=O)oc3c2C)CN(C(=O)c2cc(N3CCC3)c(C(=O)NS(=O)(=O)N3CCCC3)cc2F)CC4)CCN1C [Example 194, (R)-2-(azetidin-1-yl)-5-fluoro-4-(8-(3-(methoxymethyl)-4-methylpiperazin-1-yl)-7-methyl-5-oxo-1,3,4,5-tetrahydro-2H-chromeno[3,4-c]pyridine-3-carbonyl)-N-(pyrrolidin-1-ylsulfonyl)benzamide]
